Tests used:
[1] = tested on: Bemisia tabaci (Cotton White Fly); experiment: Example B1 Bemisia tabaci feeding/contact activity; type: in vivo; details: foliar, 144 h, application rate of 200 ppm, adult white flies on sprayed cotton leaf discs, 6 days after incubation
Method: Bemisia tabaci (Cotton White Fly): Feeding/Contact Activity
Cotton leaf discs were placed on agar in 24-well microtiter plates and sprayed with aqueous test solutions prepared from 10,000 ppm DMSO stock solutions. After drying the leaf discs were infested with adult white flies. The samples were checked for mortality 6 days after incubation.

[2] = tested on: Euschistus heros (Neotropical Brown Stink Bug); experiment: Example B6 Euschistus heros growth inhibition; type: in vivo; details: 120 h, application rate of 200 ppm, N2 nymphs on sprayed soybean leaves, 5 days after infestation
Method: Euschistus heros (Neotropical Brown Stink Bug): Growth Inhibition
Soybean leaves on agar in 24-well microtiter plates were sprayed with aqueous test solutions prepared from 10,000 ppm DMSO stock solutions. After drying the leaves were infested with N2 nymphs. The samples were assessed for growth inhibition in comparison to untreated samples 5 days after infestation. Control of Euschistus heros by a test sample is given when the growth inhibition is higher than the untreated sample.

[3] = tested on: Myzus persicae (Green Peach Aphid); experiment: Example B9 Myzus persicae feeding/contact activity; type: in vivo; details: foliar, 144 h, application rate of 200 ppm, mixed-age aphids on sprayed sunflower leaf discs, 6 days after infestation
Method: Myzus persicae (Green Peach Aphid): Feeding/Contact Activity
Sunflower leaf discs were placed onto agar in a 24-well microtiter plate and sprayed with aqueous test solutions prepared from 10,000 ppm DMSO stock solutions. After drying, the leaf discs were infested with an aphid population of mixed ages. The samples were assessed for mortality 6 days after infestation.

[4] = tested on: Euschistus heros (Neotropical Brown Stink Bug); experiment: Example B5 Euschistus heros mortality and growth inhibition; type: in vivo; details: 120 h, application rate of 200 ppm, N2 nymphs on sprayed soybean leaves, 5 days after infestation, read-out: effect in at least one of the two categories (mortality or growth inhibition)
Method: Euschistus heros (Neotropical Brown Stink Bug)
Soybean leaves on agar in 24-well microtiter plates were sprayed with aqueous test solutions prepared from 10,000 ppm DMSO stock solutions. After drying the leaves were infested with N2 nymphs. The samples were assessed for mortality and growth inhibition in comparison to untreated samples 5 days after infestation.

[5] = tested on: Euschistus heros (Neotropical Brown Stink Bug); experiment: Example B7 Euschistus heros feeding/contact activity; type: in vivo; details: 120 h, application rate of 200 ppm, N2 nymphs on sprayed soybean leaves, 5 days after infestation
Method: Euschistus heros (Neotropical Brown Stink Bug): Feeding/Contact Activity
Soybean leaves on agar in 24-well microtiter plates were sprayed with aqueous test solutions prepared from 10,000 ppm DMSO stock solutions. After drying the leaves were infested with N2 nymphs. The samples were assessed for mortality 5 days after infestation.

[6] = tested on: Myzus persicae (Green Peach Aphid); experiment: Example B10 Myzus persicae systemic activity; type: in vivo; details: 144 h, test rate of 24 ppm, roots of infested pea seedlings in test solution, 6 days
Method: Myzus persicae (Green Peach Aphid). Systemic Activity
Roots of pea seedlings infested with an aphid population of mixed ages were placed directly into aqueous test solutions prepared from 10,000 DMSO stock solutions. The samples were assessed for mortality 6 days after placing seedlings into test solutions.

[7] = tested on: Frankliniella occidentalis (Western Flower Thrips); experiment: Example B8 Frankliniella occidentalis feeding/contact activity; type: in vivo; details: foliar, 168 h, application rate of 200 ppm, mixed-age population on sprayed sunflower leaf discs, 7 days after infestation
Method: Frankliniella occidentalis (Western Flower Thrips): Feeding/Contact Activity
Sunflower leaf discs were placed on agar in 24-well microtiter plates and sprayed with aqueous test solutions prepared from 10,000 DMSO stock solutions. After drying the leaf discs were infested with a Frankliniella population of mixed ages. The samples were assessed for mortality 7 days after infestation.

[8] = tested on: Spodoptera littoralis (Egyptian Cotton Leaf Worm); experiment: Example B14 Spodoptera littoralis anti-feeding activity; type: in vivo; details: foliar, 72 h, application rate of 200 ppm, L1 larvae on sprayed cotton leaf discs, 3 days after infestation, read-out: control (anti-feeding effect)
Method: Spodoptera littoralis (Egyptian Cotton Leaf Worm): Anti-Feeding Activity
Cotton leaf discs were placed onto agar in 24-well microtiter plates and sprayed with aqueous test solutions prepared from 10,000 ppm DMSO stock solutions. After drying the leaf discs were infested with five L1 larvae. The samples were assessed for anti-feeding effect in comparison to untreated samples 3 days after infestation. Control of Spodoptera littoralis by a test sample is given when the anti-feedant effect is higher than the untreated sample.

[9] = tested on: Plutella xylostella (Diamond Back Moth); experiment: Example B13 Plutella xylostella mortality and growth inhibition; type: in vivo; details: 120 h, application rate of 200 ppm, L2 larvae on treated artificial diet, 5 days after infestation, read-out: effect in at least one of the two categories (mortality or growth inhibition)
Method: Plutella xylostella (Diamond Back Moth)
(§1) 24-well microtiter plates with artificial diet were treated with aqueous test solutions prepared from 10,000 ppm DMSO stock solutions by pipetting. After drying, the plates were infested with L2 larvae (10 to 15 per well). The samples were assessed for mortality and growth inhibition in comparison to untreated samples 5 days after infestation.

[10] = tested on: Diabrotica balteata (Corn Root Worm); experiment: Example B4 Diabrotica balteata mortality; type: in vivo; details: 96 h, application rate of 200 ppm, L2 larvae on sprayed maize sprouts, 4 days after infestation
Method: (§2) Diabrotica Balteata (Corn Root Worm):
(§3) Maize sprouts placed onto an agar layer in 24-well microtiter plates were treated with aqueous test solutions prepared from 10,000 ppm DMSO stock solutions by spraying. After drying, the plates were infested with L2 larvae (6 to 10 per well). The samples were assessed for mortality 4 days after infestation.

[11] = tested on: Diabrotica balteata (Corn Root Worm); experiment: Example B2 Diabrotica balteata mortality and growth inhibition; type: in vivo; details: 96 h, application rate of 200 ppm, L2 larvae on sprayed maize sprouts, 4 days after infestation, read-out: effect in at least one of the two categories (mortality or growth inhibition)
Method: Diabrotica balteata (Corn Root Worm)
as §3, with “mortality and growth inhibition in comparison to untreated samples” for “mortality”

[12] = tested on: Plutella xylostella (Diamond Back Moth); experiment: Example B12 Plutella xylostella feeding/contact activity; type: in vivo; details: 120 h, application rate of 200 ppm, L2 larvae on treated artificial diet, 5 days after infestation
Method: Plutella xylostella (Diamond Back Moth): Feeding/Contact Activity
24-well microtiter plates with artificial diet were treated with aqueous test solutions prepared from 10,000 ppm DMSO stock solutions by pipetting. After drying, the plates were infested with L2 larvae (10 to 15 per well). The samples were assessed for mortality 5 days after infestation.

[13] = tested on: Spodoptera littoralis (Egyptian Cotton Leaf Worm); experiment: Example B16 Spodoptera littoralis feeding/contact activity; type: in vivo; details: foliar, 72 h, application rate of 200 ppm, L1 larvae on sprayed cotton leaf discs, 3 days after infestation
Method: Spodoptera littoralis (Egyptian Cotton Leaf Worm): Feeding/Contact Activity
Cotton leaf discs were placed onto agar in 24-well microtiter plates and sprayed with aqueous test solutions prepared from 10,000 ppm DMSO stock solutions. After drying the leaf discs were infested with five L1 larvae. The samples were assessed for mortality 3 days after infestation.

[14] = tested on: Plutella xylostella (Diamond Back Moth); experiment: Example B11 Plutella xylostella growth inhibition activity; type: in vivo; details: 120 h, application rate of 200 ppm, L2 larvae on treated artificial diet, 5 days after infestation
Method: Plutella xylostella (Diamond Back Moth): Growth Inhibition Activity
as §1, with “for” for “for mortality and”, “infestation. Control of Plutella xylostella by a test sample is given when the growth inhibition is higher than the untreated sample.” for “infestation.”

[15] = tested on: Diabrotica balteata (Corn Root Worm); experiment: Example B3 Diabrotica balteata growth inhibition; type: in vivo; details: 96 h, application rate of 200 ppm, L2 larvae on sprayed maize sprouts, 4 days after infestation
Method: as §2
as §3, with “growth inhibition in comparison to untreated samples” for “mortality”, “infestation. Control of Diabrotica balteata by a test sample is given when the growth inhibition is higher than in the untreated sample.” for “infestation.”

Compound	melting point	mortality at 200 ppm [1]	mortality at 200 ppm [3]	percent effect (mortality or growth inhibition) at 200 ppm [4]	mortality at 200 ppm [5]	mortality at 24 ppm [6]	pest or weed control at 200 ppm [8]	percent effect (mortality or growth inhibition) at 200 ppm [9]	mortality at 200 ppm [10]	percent effect (mortality or growth inhibition) at 200 ppm [11]	mortality at 200 ppm [12]	mortality at 200 ppm [13]	also measured
CCS(=O)(=O)c1cc(OC[S+](C)[O-])cnc1-c1cn2cnc(C(F)(F)F)cc2n1 (centres unmarked) [Compound P22, 2-[3-ethylsulfonyl-5-(methylsulfinylmethoxy)-2-pyridyl]-7-(trifluoromethyl)imidazo[1,2-c]pyrimidine]		≥ 80%	≥ 80%	≥ 80%	≥ 80%	≥ 80%							inhibition at 200 ppm [2]: ≥ 80%; mortality at 200 ppm [7]: ≥ 80%
CCS(=O)(=O)c1cc(OCC(F)(F)F)cnc1-c1nc2cc(C(F)(F)F)ncn2c1Br [Compound P25, 3-bromo-2-[3-ethylsulfonyl-5-(2,2,2-trifluoroethoxy)-2-pyridyl]-7-(trifluoromethyl)imidazo[1,2-c]pyrimidine]	86 to 88 °C												
CCS(=O)(=O)c1cc(OCC(C)C)cnc1-c1cn2cnc(C(F)(F)F)cc2n1 [Compound P14, 2-(3-ethylsulfonyl-5-isobutoxy-2-pyridyl)-7-(trifluoromethyl)imidazo[1,2-c]pyrimidine]			≥ 80%	≥ 80%	≥ 80%		≥ 80%	≥ 80%	≥ 80%	≥ 80%	≥ 80%	≥ 80%	inhibition at 200 ppm [2]: ≥ 80%
CCS(=N)(=O)c1cc(OC(C)(C)C#N)cnc1-c1cn2cnc(C(F)(F)F)cc2n1 (centres unmarked) [Compound P20, 2-[[5-(ethylsulfonimidoyl)-6-[7-(trifluoromethyl)imidazo[1,2-c]pyrimidin-2-yl]-3-pyridyl]oxy]-2-methyl-propanenitrile]		≥ 80%	≥ 80%			≥ 80%	≥ 80%	≥ 80%	≥ 80%	≥ 80%	≥ 80%	≥ 80%	inhibition at 200 ppm [14]: ≥ 80%; inhibition at 200 ppm [15]: ≥ 80%
CCS(=O)(=O)c1cc(OCS(C)(=O)=O)cnc1-c1cn2cnc(C(F)(F)C(F)(F)F)cc2n1 [Compound P26, 2-[3-ethylsulfonyl-5-(methylsulfonylmethoxy)-2-pyridyl]-7-(1,1,2,2,2-pentafluoroethyl)imidazo[1,2-c]pyrimidine]	248 to 250 °C												
CCS(=O)(=O)c1cc(OCC(F)F)cnc1-c1cn2cnc(C(F)(F)F)cc2n1 [Compound P8, 2-[5-(2,2-difluoroethoxy)-3-ethylsulfonyl-2-pyridyl]-7-(trifluoromethyl)imidazo[1,2-c]pyrimidine]		≥ 80%	≥ 80%	≥ 80%	≥ 80%	≥ 80%	≥ 80%	≥ 80%	≥ 80%	≥ 80%	≥ 80%	≥ 80%	inhibition at 200 ppm [14]: ≥ 80%; mortality at 200 ppm [7]: ≥ 80%; inhibition at 200 ppm [15]: ≥ 80%

Continued, in another order:

melting point	Compound	mortality at 200 ppm [1]	mortality at 200 ppm [3]	percent effect (mortality or growth inhibition) at 200 ppm [4]	mortality at 200 ppm [5]	mortality at 24 ppm [6]	pest or weed control at 200 ppm [8]	percent effect (mortality or growth inhibition) at 200 ppm [9]	mortality at 200 ppm [10]	percent effect (mortality or growth inhibition) at 200 ppm [11]	mortality at 200 ppm [12]	mortality at 200 ppm [13]	also measured
230 to 234 °C	CCS(=O)(=O)c1cc(O)cnc1-c1nc2cc(C(F)(F)F)ncn2c1Br [Compound P27, 6-[3-bromo-7-(trifluoromethyl)imidazo[1,2-c]pyrimidin-2-yl]-5-ethylsulfonyl-pyridin-3-ol]												
209 to 210 °C	CCS(=O)(=O)c1cc(OCCS(C)(=O)=O)cnc1-c1cn2cnc(C(F)(F)F)cc2n1 [Compound P24, 2-[3-ethylsulfonyl-5-(2-methylsulfonylethoxy)-2-pyridyl]-7-(trifluoromethyl)imidazo[1,2-c]pyrimidine]												
229 to 232 °C	CCS(=O)(=O)c1cc(O)cnc1-c1cn2cnc(C(F)(F)F)cc2n1 [Compound P10, 5-ethylsulfonyl-6-[7-(trifluoromethyl)imidazo[1,2-c]pyrimidin-2-yl]pyridin-3-ol]												

Reference: patent US10945435B2, “Imidazopyrimidine derivatives with sulfur containing phenyl and pyridyl substituents” (SYNGENTA PARTICIPATIONS AG, priority 2017, dated 2021)
